In the supplement of paper PMC10307832:

Columns and labels:
Assay in all cases: relative viability (nuclei count vs DMSO), 5 days (fraction); higher = more cells survive
[1] = system: NCI-H1993
Method in brief: (§1)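 Lung cancer cell lines were seeded in 1536-well plates and dosed by pin tool the next day, with either a single drug or a fixed anchor-drug dose combined with five library-drug doses (not always all listed) spaced in √10 steps. Five days later, one step fixed the cells and stained their nuclei (final 0.05% Triton X-100, 1% formaldehyde, 1 ug/ml Hoechst), and nuclei were counted on 4× images. Relative viability is the nuclei count in treated wells divided by the count in vehicle wells, and each value is the median of duplicate plates.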

[2] = system: NCI-H838
Method in brief: as §1

[3] = system: NCI-H2170
Method in brief: as §1

[4] = system: ABC-1
Method in brief: as §1

[5] = system: NCI-H1666
Method in brief: as §1

[6] = system: LCLC-103H
Method in brief: as §1

[7] = system: NCI-H23
Method in brief: as §1

[8] = system: HCC-44
Method in brief: as §1

[9] = system: NCI-H1355
Method in brief: as §1

[10] = system: NCI-H520
Method in brief: as §1

[11] = system: 201T
Method in brief: as §1

[12] = system: HOP-62
Method in brief: as §1

[13] = system: COR-L23
Method in brief: as §1

[14] = system: NCI-H322M
Method in brief: as §1

[15] = system: NCI-H1651
Method in brief: as §1

[16] = system: NCI-H2347
Method in brief: as §1

[17] = system: NCI-H2228
Method in brief: as §1

[18] = system: CAL-12T
Method in brief: as §1

[19] = system: LC-2-ad
Method in brief: as §1

[20] = system: NCI-H647
Method in brief: as §1

[21] = system: NCI-H661
Method in brief: as §1

[22] = system: NCI-H2085
Method in brief: as §1

[23] = system: NCI-H1395
Method in brief: as §1

Compound: Cc1cnc(-c2cnc(NCCNc3ccc(C#N)cn3)nc2-c2ccc(Cl)cc2Cl)[nH]1 + O=C(CCCCCCC(=O)Nc1ccccc1)NO [Vorinostat] (partner 1 µM)
- relative viability ([1]; first compound 0.08 µM): 1.26
- relative viability ([1]; first compound 0.253 µM): 0.761
- relative viability ([1]; first compound 0.8 µM): 0.727
- relative viability ([1]; first compound 2.53 µM): 0.76
- relative viability ([2]; first compound 0.08 µM): 0.726
- relative viability ([2]; first compound 0.253 µM): 0.723
- relative viability ([2]; first compound 0.8 µM): 0.856
- relative viability ([2]; first compound 2.53 µM): 1.06
- relative viability ([3]; first compound 0.08 µM): 0.837
- relative viability ([3]; first compound 0.8 µM): 0.734
- relative viability ([3]; first compound 2.53 µM): 0.714
- relative viability ([4]; first compound 0.08 µM): 1.24
- relative viability ([4]; first compound 0.253 µM): 0.871
- relative viability ([4]; first compound 0.8 µM): 1.06
- relative viability ([4]; first compound 2.53 µM): 1.15
- relative viability ([5]; first compound 0.08 µM): 0.899
- relative viability ([5]; first compound 0.253 µM): 1.05
- relative viability ([5]; first compound 0.8 µM): 0.964
- relative viability ([5]; first compound 2.53 µM): 1.1
- relative viability ([6]; first compound 0.08 µM): 0.728
- relative viability ([6]; first compound 0.253 µM): 0.541
- relative viability ([6]; first compound 0.8 µM): 0.689
- relative viability ([6]; first compound 2.53 µM): 0.698
- relative viability ([7]; first compound 0.08 µM): 0.568
- relative viability ([7]; first compound 0.253 µM): 0.475
- relative viability ([7]; first compound 0.8 µM): 0.575
- relative viability ([7]; first compound 2.53 µM): 0.529
- relative viability ([8]; first compound 0.08 µM): 1.05
- relative viability ([8]; first compound 0.253 µM): 1.16
- relative viability ([8]; first compound 0.8 µM): 1.03
- relative viability ([8]; first compound 2.53 µM): 1.24
- relative viability ([9]; first compound 0.08 µM): 0.632
- relative viability ([9]; first compound 0.253 µM): 0.544
- relative viability ([9]; first compound 0.8 µM): 0.633
- relative viability ([9]; first compound 2.53 µM): 0.651
- relative viability ([10]; first compound 0.08 µM): 0.814
- relative viability ([10]; first compound 0.253 µM): 0.678
- relative viability ([10]; first compound 0.8 µM): 0.725
- relative viability ([10]; first compound 2.53 µM): 0.772
- relative viability ([11]; first compound 0.08 µM): 1.01
- relative viability ([11]; first compound 0.8 µM): 0.977
- relative viability ([11]; first compound 2.53 µM): 0.912
- relative viability ([12]; first compound 0.08 µM): 0.733
- relative viability ([12]; first compound 0.8 µM): 0.545
- relative viability ([12]; first compound 2.53 µM): 0.594
- relative viability ([13]; first compound 0.08 µM): 0.556
- relative viability ([13]; first compound 0.253 µM): 0.42
- relative viability ([13]; first compound 0.8 µM): 0.508
- relative viability ([13]; first compound 2.53 µM): 0.505
- relative viability ([14]; first compound 0.08 µM): 0.843
- relative viability ([14]; first compound 0.253 µM): 0.878
- relative viability ([14]; first compound 0.8 µM): 0.874
- relative viability ([14]; first compound 2.53 µM): 1.53
- relative viability ([15]; first compound 0.08 µM): 0.539
- relative viability ([15]; first compound 0.253 µM): 0.459
- relative viability ([15]; first compound 0.8 µM): 0.537
- relative viability ([15]; first compound 2.53 µM): 0.58
- relative viability ([16]; first compound 0.08 µM): 0.56
- relative viability ([16]; first compound 0.253 µM): 0.568
- relative viability ([16]; first compound 0.8 µM): 0.604
- relative viability ([16]; first compound 2.53 µM): 0.597
- relative viability ([17]; first compound 0.08 µM): 0.891
- relative viability ([17]; first compound 0.253 µM): 0.642
- relative viability ([17]; first compound 0.8 µM): 0.668
- relative viability ([17]; first compound 2.53 µM): 0.693
- relative viability ([18]; first compound 0.08 µM): 0.928
- relative viability ([18]; first compound 0.253 µM): 0.702
- relative viability ([18]; first compound 0.8 µM): 0.848
- relative viability ([18]; first compound 2.53 µM): 0.807
- relative viability ([19]; first compound 0.08 µM): 0.708
- relative viability ([19]; first compound 0.8 µM): 0.705
- relative viability ([19]; first compound 2.53 µM): 0.603
- relative viability ([20]; first compound 0.08 µM): 0.609
- relative viability ([20]; first compound 0.253 µM): 0.399
- relative viability ([20]; first compound 0.8 µM): 0.743
- relative viability ([20]; first compound 2.53 µM): 0.357
- relative viability ([21]; first compound 0.08 µM): 0.906
- relative viability ([21]; first compound 0.253 µM): 0.774
- relative viability ([21]; first compound 0.8 µM): 0.782
- relative viability ([21]; first compound 2.53 µM): 0.731
- relative viability ([22]; first compound 0.08 µM): 0.886
- relative viability ([22]; first compound 0.253 µM): 0.769
- relative viability ([22]; first compound 0.8 µM): 0.824
- relative viability ([22]; first compound 2.53 µM): 0.997
- relative viability ([23]; first compound 0.08 µM): 0.847
- relative viability ([23]; first compound 0.253 µM): 0.577
- relative viability ([23]; first compound 0.8 µM): 0.62
- relative viability ([23]; first compound 2.53 µM): 0.6

Compound: Cc1cnc(-c2cnc(NCCNc3ccc(C#N)cn3)nc2-c2ccc(Cl)cc2Cl)[nH]1 + O=C(c1cc(Cc2n[nH]c(=O)c3ccccc23)ccc1F)N1CCN(C(=O)C2CC2)CC1 [Olaparib] (partner 8 µM)
- relative viability ([1]; first compound 0.08 µM): 1.1
- relative viability ([1]; first compound 0.253 µM): 0.855
- relative viability ([1]; first compound 0.8 µM): 1.13
- relative viability ([1]; first compound 2.53 µM): 1.2
- relative viability ([2]; first compound 0.08 µM): 0.756
- relative viability ([2]; first compound 0.253 µM): 0.768
- relative viability ([2]; first compound 0.8 µM): 0.796
- relative viability ([2]; first compound 2.53 µM): 0.75
- relative viability ([3]; first compound 0.08 µM): 0.601
- relative viability ([3]; first compound 0.8 µM): 0.518
- relative viability ([3]; first compound 2.53 µM): 0.519
- relative viability ([4]; first compound 0.08 µM): 0.788
- relative viability ([4]; first compound 0.253 µM): 0.834
- relative viability ([4]; first compound 0.8 µM): 0.78
- relative viability ([4]; first compound 2.53 µM): 0.763
- relative viability ([5]; first compound 0.08 µM): 0.775
- relative viability ([5]; first compound 0.253 µM): 0.732
- relative viability ([5]; first compound 0.8 µM): 0.765
- relative viability ([5]; first compound 2.53 µM): 0.781
- relative viability ([6]; first compound 0.08 µM): 0.837
- relative viability ([6]; first compound 0.253 µM): 0.673
- relative viability ([6]; first compound 0.8 µM): 0.731
- relative viability ([6]; first compound 2.53 µM): 0.818
- relative viability ([7]; first compound 0.08 µM): 0.316
- relative viability ([7]; first compound 0.253 µM): 0.297
- relative viability ([7]; first compound 0.8 µM): 0.303
- relative viability ([7]; first compound 2.53 µM): 0.367
- relative viability ([8]; first compound 0.08 µM): 0.934
- relative viability ([8]; first compound 0.253 µM): 0.946
- relative viability ([8]; first compound 0.8 µM): 1.04
- relative viability ([8]; first compound 2.53 µM): 0.989
- relative viability ([9]; first compound 0.08 µM): 0.793
- relative viability ([9]; first compound 0.253 µM): 0.648
- relative viability ([9]; first compound 0.8 µM): 0.749
- relative viability ([9]; first compound 2.53 µM): 0.716
- relative viability ([10]; first compound 0.08 µM): 0.366
- relative viability ([10]; first compound 0.253 µM): 0.3
- relative viability ([10]; first compound 0.8 µM): 0.354
- relative viability ([10]; first compound 2.53 µM): 0.311
- relative viability ([11]; first compound 0.08 µM): 0.848
- relative viability ([11]; first compound 0.8 µM): 0.81
- relative viability ([11]; first compound 2.53 µM): 0.834
- relative viability ([12]; first compound 0.08 µM): 0.354
- relative viability ([12]; first compound 0.253 µM): 0.362
- relative viability ([12]; first compound 0.8 µM): 0.502
- relative viability ([12]; first compound 2.53 µM): 0.324
- relative viability ([13]; first compound 0.08 µM): 0.379
- relative viability ([13]; first compound 0.253 µM): 0.314
- relative viability ([13]; first compound 0.8 µM): 0.343
- relative viability ([13]; first compound 2.53 µM): 0.261
- relative viability ([14]; first compound 0.08 µM): 0.768
- relative viability ([14]; first compound 0.253 µM): 0.733
- relative viability ([14]; first compound 0.8 µM): 0.638
- relative viability ([14]; first compound 2.53 µM): 0.637
- relative viability ([15]; first compound 0.08 µM): 0.175
- relative viability ([15]; first compound 0.253 µM): 0.192
- relative viability ([15]; first compound 0.8 µM): 0.2
- relative viability ([15]; first compound 2.53 µM): 0.182
- relative viability ([16]; first compound 0.08 µM): 0.623
- relative viability ([16]; first compound 0.253 µM): 0.495
- relative viability ([16]; first compound 0.8 µM): 0.663
- relative viability ([16]; first compound 2.53 µM): 0.587
- relative viability ([17]; first compound 0.08 µM): 0.56
- relative viability ([17]; first compound 0.253 µM): 0.332
- relative viability ([17]; first compound 0.8 µM): 0.732
- relative viability ([17]; first compound 2.53 µM): 0.419
- relative viability ([18]; first compound 0.08 µM): 0.686
- relative viability ([18]; first compound 0.253 µM): 0.698
- relative viability ([18]; first compound 0.8 µM): 0.802
- relative viability ([18]; first compound 2.53 µM): 0.756
- relative viability ([19]; first compound 0.08 µM): 0.657
- relative viability ([19]; first compound 0.8 µM): 0.73
- relative viability ([19]; first compound 2.53 µM): 0.645
- relative viability ([20]; first compound 0.08 µM): 0.528
- relative viability ([20]; first compound 0.253 µM): 0.558
- relative viability ([20]; first compound 0.8 µM): 0.528
- relative viability ([20]; first compound 2.53 µM): 0.429
- relative viability ([21]; first compound 0.08 µM): 0.736
- relative viability ([21]; first compound 0.253 µM): 0.759
- relative viability ([21]; first compound 0.8 µM): 0.7
- relative viability ([21]; first compound 2.53 µM): 0.654
- relative viability ([22]; first compound 0.08 µM): 0.804
- relative viability ([22]; first compound 0.253 µM): 0.792
- relative viability ([22]; first compound 0.8 µM): 0.711
- relative viability ([22]; first compound 2.53 µM): 0.79
- relative viability ([23]; first compound 0.08 µM): 0.496
- relative viability ([23]; first compound 0.253 µM): 0.435
- relative viability ([23]; first compound 0.8 µM): 0.504
- relative viability ([23]; first compound 2.53 µM): 0.47
